According to patent US11230717B2, “Plants having increased tolerance to herbicides” (BASF SE, priority 2013, dated 2022):
pKi: −log10 of the molar value.

Experiments:
Format in all cases: biochemical
Lolium HPPD = assay: HPPD activity assay, in vitro characterization; settings: normalized to Hordeum SEQ ID NO:2
Procedure: (§1) HPPD produces homogentisic acid and CO2 from 4-hydroxyphenylpyruvate (4-HPP) and O2. The activity assay for HPPD is based on the analysis of homogentisic acid by reversed phase HPLC.
(§2) The assay mixture can contain 150 mM potassium phosphate buffer pH 7.0, 50 mM L-ascorbic acid, 100 μM Catalase (Sigma-Aldrich), 1 μM FeSO4 and 0.2 units of purified HPPD enzyme in a total volume of 505 μl. 1 unit is defined as the amount of enzyme that is required to produce 1 nmol of HGA per minute at 20° C.
(§3) After a preincubation of 30 min the reaction is started by adding 4-HPP to a final concentration of 0.05 mM. The reaction is allowed to proceed for 45 min at room temperature. The reaction is stopped by the addition of 50 μl of 4.5 M phosphoric acid. The sample is filtered using a […] pore size PVDF filtration device.
(§4) 5 μl of the cleared sample is analyzed on an UPLC HSS T3 column (particle size 1.8 μm, dimensions 2,1×50 mm; Waters) by isocratic elution using 90% 20 mM NaH2PO4 pH 2.2, 10% methanol (v/v).
(§5) HGA is detected electrochemically at 750 mV (mode: DC; polarity: positive) and quantified by integrating peak areas (Empower software; Waters).
(§6) Inhibitors are dissolved in DMSO (dimethylsulfoxide) to a concentration of 0.5 mM. From this stock solution serial five-fold dilutions are prepared in DMSO, which are used in the assay. The respective inhibitor solution accounts for 1% of the assay volume. Thus, final inhibitor concentrations range from 5 μM to 320 μM, respectively. Activities are normalized by setting the uninhibited enzyme activity to 100%. IC50 values are calculated using non-linear regression.
(§7) Using methods which are described in the above examples or well known in the art, purified, recombinant wildtype HPPD enzymes are characterized with respect to their kinetic properties and sensitivity towards HPPD inhibiting herbicides. Apparent michaelis constants (Km) and maximal reaction velocities (Vmax) are calculated by non-linear regression with the software GraphPad Prism 5 (GraphPad Software, La Jolla, USA) using a substrate inhibition model. Apparent kcat values are calculated from Vmax assuming 100% purity of the enzyme preparation. Weighted means (by standard error) of Km and IC50 values are calculated from at least three independent experiments. The Cheng-Prusoff equation for competitive inhibition (Cheng, Y. C.; Prusoff, W. H. Biochem Pharmacol 1973, 22, 3099-3108) is used to calculate dissociation constants (Ki). • Field performance of the HPPD enzyme, which is used as a herbicide tolerance trait, may depend not only on its lack of sensitivity towards HPPD inhibiting herbicides but also on its activity. To assess the potential performance of a herbicide tolerance trait a tolerance index (TI) is calculated using the following formula: […]
(§8) The reference SEQ ID NO:2 was included as a comparative control in a representative number of experiments and the values given in Table 12 are the average values from a number of experiments. The TI values given for various HPPD enzymes from different organisms are normalized to the value of the reference SEQ ID NO:2.

[1] = tested on: Zea mays HPPD mutant Seq ID 69; assay: HPPD activity assay, in vitro characterization; settings: normalized to Hordeum SEQ ID NO:2
Procedure: as §1, §2, §3, §4, §5, §6, §7, §8

Rhodococcus HPPD1 = assay: HPPD activity assay, in vitro characterization; settings: normalized to Hordeum SEQ ID NO:2
Procedure: as §1, §2, §3, §4, §5, §6, §7, §8

Kordia HPPD = assay: HPPD activity assay, in vitro characterization; settings: normalized to Hordeum SEQ ID NO:2
Procedure: as §1, §2, §3, §4, §5, §6, §7, §8

[2] = target: T1, Hordeum HPPD variant S252T (Hordeum vulgare, UniProt O48604, A164G/R146V/R147D/R148G/S252T); assay: HPPD activity assay, in vitro characterization of HPPD mutants; settings: normalized to wild-type
T1 construct: His (N); made in house; host or cells: E. coli BL21 (DE3)
T1 sequence (O48604 whole entry R146V/R147D/R148G/A164G/S252T): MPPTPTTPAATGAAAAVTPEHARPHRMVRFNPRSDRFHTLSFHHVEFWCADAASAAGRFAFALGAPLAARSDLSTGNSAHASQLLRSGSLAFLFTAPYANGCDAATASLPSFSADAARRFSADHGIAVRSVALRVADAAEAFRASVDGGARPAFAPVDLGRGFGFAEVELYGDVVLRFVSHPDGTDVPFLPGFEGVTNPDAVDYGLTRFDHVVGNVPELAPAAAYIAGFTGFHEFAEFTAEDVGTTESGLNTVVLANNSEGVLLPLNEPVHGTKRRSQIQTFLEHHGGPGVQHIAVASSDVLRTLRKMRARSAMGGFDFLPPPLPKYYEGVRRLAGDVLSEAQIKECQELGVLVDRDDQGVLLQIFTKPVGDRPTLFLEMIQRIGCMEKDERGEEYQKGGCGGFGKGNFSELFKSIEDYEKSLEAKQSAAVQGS
Procedure: as §1, §2, §3, §4, §5
as §6, with “Thus, final inhibitor concentrations range from 5 μM to 320 μM, respectively.” left out
Purified, mutant HPPD enzymes are obtained by the methods described above. Dose response and kinetic measurements are carried out using the described HPPD activity assay. Apparent michaelis constants (Km) and maximal reaction velocities (Vmax) are calculated by non-linear regression with the software GraphPad Prism 5 (GraphPad Software, La Jolla, USA) using a substrate inhibition model. […] Weighted means (by standard error) of Km and IC50 values are calculated from at least three independent experiments.
Field performance of the optimized HPPD enzyme, which is used as a herbicide tolerance trait may depend not only on its lack of sensitivity towards HPPD inhibiting herbicides but also on its activity. To assess the potential performance of a herbicide tolerance trait a tolerance index (TI) is calculated using the following formula: […]

[3] = target: T2, Hordeum HPPD (SEQ ID NO:2) (Hordeum vulgare, UniProt O48604, A164G/R146V/R147D/R148G); assay: HPPD activity assay, in vitro characterization
T2 construct: subcloned into a modified pET24D (Novagen) expression vector resulting in N-terminally His-tagged expression constructs; His (N); made in house; host or cells: E. coli BL21 (DE3)
T2 sequence (O48604 whole entry R146V/R147D/R148G/A164G): as the sequence (O48604 whole entry R146V/R147D/R148G/A164G/S252T) above, with T252S counted along it
Procedure: as §1, §2, §3, §4, §5
as §6, with “Thus, final inhibitor concentrations range from 5 μM to 320 μM, respectively.” left out
(§9) Using methods which are described in the above examples or well known in the art, purified, recombinant wildtype HPPD enzymes are characterized with respect to their kinetic properties and sensitivity towards HPPD inhibiting herbicides. Apparent michaelis constants (Km) and maximal reaction velocities (Vmax) are calculated by non-linear regression with the software GraphPad Prism 5 (GraphPad Software, La Jolla, USA) using a substrate inhibition model. […] Weighted means (by standard error) of Km and IC50 values are calculated from at least three independent experiments. […] To assess the potential performance of a herbicide tolerance trait a tolerance index (TI) is calculated using the following formula: […]

Arabidopsis HPPD = target: T3, Arabidopsis HPPD (Arabidopsis thaliana, UniProt P93836); assay: HPPD activity assay (homogentisic acid by HPLC), in vitro characterization; settings: for Normalized tolerance index (TI): Arabidopsis HPPD Wildtype (SEQ ID: 53), reference
T3 construct: His6 (N); made in house; host or cells: E. coli BL21 (DE3)
T3 sequence (P93836 1-445): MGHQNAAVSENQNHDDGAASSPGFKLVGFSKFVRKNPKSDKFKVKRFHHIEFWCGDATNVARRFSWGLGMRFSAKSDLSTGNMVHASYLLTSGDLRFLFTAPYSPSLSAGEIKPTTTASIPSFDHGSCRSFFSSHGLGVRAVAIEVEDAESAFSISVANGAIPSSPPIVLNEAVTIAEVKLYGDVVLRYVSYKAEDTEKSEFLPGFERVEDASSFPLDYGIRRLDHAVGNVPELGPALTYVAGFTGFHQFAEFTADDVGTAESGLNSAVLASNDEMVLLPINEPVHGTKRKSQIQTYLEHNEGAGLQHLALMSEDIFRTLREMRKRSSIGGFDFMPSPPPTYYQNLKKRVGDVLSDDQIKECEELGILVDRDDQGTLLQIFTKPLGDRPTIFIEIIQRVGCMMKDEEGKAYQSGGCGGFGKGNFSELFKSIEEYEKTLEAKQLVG
Procedure: as §1, §2, §3, §4, §5
as §6, with “Thus, final inhibitor concentrations range from 5 μM to 320 μM, respectively.” left out
as §9

[4] = Hordeum HPPD Wild-type (SEQ ID NO: 2), reference of Table 16
[5] = Hordeum HPPD, reference, normalized to SEQ ID NO:2

| SMILES | Normalized tolerance index (TI) (Lolium HPPD) | Normalized tolerance index (TI) [1] | Normalized tolerance index (TI) (Rhodococcus HPPD1) | Normalized tolerance index (TI) (Kordia HPPD) | Normalized tolerance index (TI) [2] | pKi [3] | Normalized tolerance index (TI) [3, 4] | Normalized tolerance index (TI) [3, 5] | TI (tolerance index) ([3]; Hordeum HPPD, not normalized) | pKi (Arabidopsis HPPD) | Normalized tolerance index (TI) (Arabidopsis HPPD) | TI (tolerance index) (Arabidopsis HPPD; Arabidopsis HPPD, not normalized) |
| --- | --- | --- | --- | --- | --- | --- | --- | --- | --- | --- | --- | --- |
| Cn1nnnc1NC(=O)c1c(F)cc(Cl)c(S(C)(=O)=O)c1Cl [Inhibitor 1, 2,4-dichloro-6-fluoro-3-methylsulfonyl-N-(1-methyltetrazol-5-yl)benzamide] | 4.2 | 1.4 | 2.8 | 1.2 | 1.8 | 8.43 | 1 | 1 | 1.6E−3 | 7.82 | 1 | 15E−3 |
| CSc1c(Cl)cc(F)c(C(=O)Nc2ncnn2C)c1Cl [Inhibitor 3, 2,4-dichloro-6-fluoro-3-methylsulfanyl-N-(2-methyl-1,2,4-triazol-3-yl)benzamide] | 1.7 | 0.7 | 0.4 | 3.1 | 11.1 | – | 1 | 1 | – | – | 1 | – |
